Our source for the half-life, IC50 and solubility values is EP2064211B1, “IMIDAZO[1,2-A]PYRIDINE HYDROXYMATE COMPOUNDS THAT ARE INHIBITORS OF HISTONE DEACETYLASE” (MEI Pharma, Inc., priority 2006, dated 2008).

In brackets after ≈: the same amount, converted by molar mass.

One may read the half-life as how long it takes for the measured level to halve. Low values mean fast loss, high ones slow loss. A word on the solubility: it is the concentration that dissolves in the medium under given conditions. A low value points to a poorly soluble substance.

Data set [1] is described as follows: Measurement of microsomal stability. The format is in vitro ADME. The following applies: pooled human liver microsomes 1.0 mg/ml, test compound 5 µM, pH 7.4, incubation up to 60 min. The method, then:
Metabolic stability measurements in vitro using liver microsomes aids in the prediction of in vivo hepatic clearance and compound stability towards phase I biotransformation reactions mediated by P450 isozymes.
Pooled human liver microsome (HLM) preparation was purchased from BD Gentest (BD BioSciences). The incubations consisted of test compound (5 µM) or control compound (Verapamil), NADPH-generating system solution A (25 mM NADP^+, 66 mM glucose-6-phosphate, 66 mM MgCl2 in H2O), NADPH-generating system solution B (40 U/ml glucose-6-phosphate dehydrogenase in 5 mM sodium citrate) and 1.0 mg/ml microsomal protein, respectively, in 100 mM potassium phosphate buffer (pH 7.4). Samples are incubated for 0, 5, 15, 30, 45, 60min. Reaction is terminated with ice-cold 80% acetonitrile and 20% DMSO. Samples are subsequently centrifuged at 4°C for 15 min at 2,000 rpm. 100 µL of the supernatant is transferred to the LC-MS plate for analysis. Before quantitative analysis, the compound is tuned in the LC/MS machine to get the optimized MS condition. Liquid chromatography is performed on a Luna C18 column (Phenomenex U.S.A, Torrance, CA) (2x50mm, […]). Percentage (%) remaining of compound (by area) of each time point is calculated with respect to time 0. Plot %remaining against time (min) to obtain the curve and use the Prism software to obtain the T1/2. […]
On the technique in general: Microsomes from liver hold many membrane-bound enzymes, among them those of drug oxidation.

In the next data set the test system is Colo205 cells. The experiment in a line: Cell-based proliferation assay for determination of GI50 values (CyQUANT). Particulars: Homo sapiens, COLO 205, compound treatment 96 h, concentration for 50% inhibition of cell growth, read-out: Gl50 (Colo205). Also noted: species or system Human. Here is the method:
Human cancer cell lines (e.g. Colo205) were obtained from ATCC. Colo205 cells were cultivated in RPMI 1640 containing 2 mM L-Glutamine, 5% FBS, 1.0 mM Na Pyruvate. Colo205 cells were seeded in 96-wells plate at 5000 cells per well. The plates were incubated at 37°C, 5% CO2, for 24 h. Cells were treated with compounds at various concentrations for 96 h. Cell growth was then monitored using CyQUANT® cell proliferation assay (Invitrogen Pte Ltd). Dose response curves were plotted to determine Gl50 values for the compounds using XL-fit (ID Business Solution, Emeryville, CA). Gl50 is defined as the concentration of compound required for 50% inhibition of cell growth.

A further data set has as its target T1, HDAC1 enzyme (Homo sapiens, UniProt Q13547).
T1 construct: Amplification of human HDAC1 coding region from this cDNA library was cloned separately into the baculovirus expression pDEST20 vector; made in house; host or cells: SF9 insect cells (baculovirus, pDEST20 vector)
Briefly: In vitro HDAC assay for determination of IC50 values (BIOMOL fluorescent-based HDAC activity assay). The format is biochemical. Particulars: recombinant GST-HDAC1, 500 uM Flur de lys substrate, room temperature 2 h; read-out: IC50 (HDAC 1). The method, then: Human cDNA library was prepared using cultured SW620 cells. Amplification of human HDAC1 coding region from this cDNA library was cloned separately into the baculovirus expression pDEST20 vector (GATEWAY Cloning Technology, Invitrogen Pte Ltd). The pDEST20-HDAC1 construct was confirmed by DNA sequencing. Recombinant baculovirus was prepared using the Bac-To-Bac method following the manufacturer's instruction (Invitrogen Pte Ltd).
Expression of GST-HDAC1 was done by infecting SF9 cells (Invitrogen Pte Ltd) with pDEST20-HDAC1 baculovirus at MOI=1 for 48 h. Soluble cell lysate was incubated with pre-equilibrated Glutathione Sepharose 4B beads (Amersham) at 4°C for 2 h. The beads were washed with PBS buffer for 3 times. The GST-HDAC1 protein was eluted by elution buffer containing 50 mM Tris, pH8.0, 150mM NaCl, 1% Triton X-100 and 10mM or 20mM reduced Glutathione. The purified GST-HDAC1 protein was dialyzed with HDAC storage buffer containing 10mM Tris, pH7.5, 100mM NaCl and 3mM MgCl2. 20% Glycerol was added to purified GST-HDAC1 protein before storage at -80°C.
The assay has been carried out in 96 well format and the BIOMOL fluorescent-based HDAC activity assay has been applied. The reaction composed of assay buffer, containing 25 mM Tris pH 7.5, 137 mM NaCl, 2.7 mM KCl, 1 mM MgCl2, 1 mg/ml BSA, tested compounds, an appropriate concentration of HDAC1 enzyme, 500 uM Flur de lys generic substrate for HDAC1 enzyme and subsequently was incubated at room temperature for 2 h. Flur de lys Developer was added and the reaction was incubated for 10 min. Briefly, deacetylation of the substrate sensitizes it to the developer, which then generates a fluorophore. The fluorophore is excited with 360 nm light and the emitted light (460 nm) is detected on a fluorometric plate reader (Tecan Ultra Microplate detection system, Tecan Group Ltd.).
The analytical software, Prism 4.0 (GraphPad Software Inc) has been used to generate IC50 from a series of data. IC50 is defined as the concentration of compound required for 50% inhibition of HDAC enzyme activity.

The nature of data set [2]: High Throughput Solubility Profiling (HTSP), kinetic solubility. The following applies: phosphate buffer with 2.5% DMSO, aqueous buffer, kinetic from dmso stock, phosphate buffer (pH 7), final concentration 250 µM. The format is physicochemical. The method, then: Determining compound aqueous solubility has become an essential early measurement in the drug discovery process. Poor aqueous solubility can cause problems in many in vitro testing techniques, leading to unreliable results. The standard way to determine the solubility of a compound is to use the shake-flask solubility method. However, this method is inherently low-throughput and labour intensive.
10mM compound stock in DMSO was dissolved in phosphate buffer (pH 7) to give a final concentration of 250µM in 96-well plates in triplicate. The plate was shaken for 1.5 hours at 450 rpm and left to stand for 2 hours to allow the compound to reach its saturation point. The plate was then centrifuged at 2000g for 15 minutes. The supernatant was transferred and mixed with 20µL of DMSO in another 96-well plate. A calibration curve at 100µM and 250µM was prepared from the 10mM stock by dissolving in 60% methanol/phosphate buffer solution. LC/MS was used in the analysis and the area counts were obtained by using the Quantify Method Editor. Using the three point standard curve including zero, the results for solubility were reported. […]

T1 sequence (Q13547 whole entry): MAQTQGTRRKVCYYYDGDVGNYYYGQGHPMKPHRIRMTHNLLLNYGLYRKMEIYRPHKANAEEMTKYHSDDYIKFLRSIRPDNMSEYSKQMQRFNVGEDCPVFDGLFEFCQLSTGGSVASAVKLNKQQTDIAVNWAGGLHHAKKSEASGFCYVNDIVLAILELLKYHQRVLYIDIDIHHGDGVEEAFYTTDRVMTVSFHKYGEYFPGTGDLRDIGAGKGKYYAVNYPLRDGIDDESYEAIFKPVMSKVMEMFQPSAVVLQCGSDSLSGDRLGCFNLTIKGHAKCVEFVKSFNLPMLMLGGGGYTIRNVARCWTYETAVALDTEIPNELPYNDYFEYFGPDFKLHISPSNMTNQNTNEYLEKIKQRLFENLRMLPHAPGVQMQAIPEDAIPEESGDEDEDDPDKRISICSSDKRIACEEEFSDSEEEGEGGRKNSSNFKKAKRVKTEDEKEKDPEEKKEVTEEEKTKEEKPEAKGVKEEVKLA

`CCN(CCC(C)(C)C)Cc1c(C)nc2cc(C=CC(=O)NO)ccn12` [Compound 50, 3-(3-{[(3,3-Dimethyl-butyl)-ethyl-amino]-methyl}-2-methyl-imidazo[1,2-a]pyridin-7-yl)-N-hydroxy-acrylamide]: the half-life at 5 µM in data set [1] was determined as 0.75 h. Moreover, the IC50 came to 160 nM in the data set on Colo205 cells and 50 nM on HDAC1 enzyme.

In the case of `CC(C)CCc1nc2cc(C=CC(=O)NO)ccn2c1CNC(C)(C)C` [Compound 65, 3-[3-(tert-Butylamino-methyl)-2-(3-methyl-butyl)-imidazo[1,2-a]pyridin-7-yl]-N-hydroxy-acrylamide], the half-life at 5 µM in data set [1] was more than 1 h. The results for the IC50 with Colo205 cells and on HDAC1 enzyme were 100 nM and 20 nM, respectively.

As to `CCCCN(CC)Cc1c(C)nc2cc(C=CC(=O)NO)ccn12` [Compound 29, 3-{3-[(Butyl-ethyl-amino)-methyl]-2-methyl-imidazo[1,2-a]pyridin-7-yl}-N-hydroxy-acrylamide], the half-life at 5 µM in data set [1] worked out at 0.983 h. The IC50 in the data set on Colo205 cells stood at 180 nM; at HDAC1 enzyme, 30 nM.

`CCN(CCC(C)C)Cc1c(C)nc2cc(C=CC(=O)NO)ccn12` [Compound 49, 3-(3-{[Ethyl-(3-methyl-butyl)-amino]-methyl}-2-methyl-imidazo[1,2-a]pyridin-7-yl)-N-hydroxy-acrylamide] had a half-life at 5 µM in data set [1] of more than 1 h. The IC50 in the data set on Colo205 cells amounted to 110 nM. This molecule gave a solubility in data set [2] of more than 250 µM.

On to `CCc1nc2cc(C=CC(=O)NO)ccn2c1CN(CC)CCC(C)C` [Compound 64, 3-(2-Ethyl-3-{[ethyl-(3-methyl-butyl)-amino]-methyl}-imidazo[1,2-a]pyridin-7-yl)-N-hydroxy-acrylamide], for which the half-life at 5 µM in data set [1] is more than 1 h. For the same molecule, the IC50 turned out to be 100 nM in the data set on Colo205 cells and 20 nM on HDAC1 enzyme.

Regarding `CCCc1nc2cc(C=CC(=O)NO)ccn2c1CN(CC)CCC(C)C` [Compound 51, 3-(3-{[Ethyl-(3-methyl-butyl)-amino]-methyl}-2-propyl-imidazo[1,2-a]pyridin-7-yl)-N-hydroxy-acrylamide], the IC50 with Colo205 cells was determined as 80 nM; at HDAC1 enzyme it was 30 nM.

As to `CCC(CC)CN(CC)Cc1c(C(C)(C)C)nc2cc(C=CC(=O)NO)ccn12` [Compound 24, 3-(2-tert-Butyl-3-{[ethyl-(2-ethyl-butyl)-amino]-methyl}-imidazo[1,2-a]pyridin-7-yl)-N-hydroxy-acrylamide], the IC50 with Colo205 cells was 970 nM; at HDAC1 enzyme it was 190 nM.

With `CCN(Cc1c(C)nc2cc(C=CC(=O)NO)ccn12)CC(C)(C)C` [Compound 39, 3-(3-{[(2,2-Dimethyl-propyl)-ethyl-amino]-methyl}-2-methyl-imidazo[1,2-a]pyridin-7-yl)-N-hydroxy-acrylamide], the IC50 with Colo205 cells turned out to be 600 nM; at HDAC1 enzyme it was 50 nM.

Turning to `CCCc1nc2cc(C=CC(=O)NO)ccn2c1CNC(C)(C)C` [Compound 48, 3-[3-(tert-Butylamino-methyl)-2-propyl-imidazo[1,2-a]pyridin-7-yl]-N-hydroxy-acrylamide], the half-life at 5 µM in data set [1] is more than 1 h. For the same molecule, the IC50 in the data set on Colo205 cells turned out to be 180 nM; at HDAC1 enzyme, 40 nM. The solubility in data set [2] came out at 168 µM (≈ 55.5 µg/mL).

As to `CCN(Cc1c(C(C)(C)C)nc2cc(C=CC(=O)NO)ccn12)CC1CCCCC1` [Compound 28, 3-{2-tert-Butyl-3-[(cyclohexylmethyl-ethyl-amino)-methyl]-imidazo[1,2-a]pyridin-7-yl}-N-hydroxy-acrylamide], the IC50 in the data set with Colo205 cells was determined as 1100 nM; at HDAC1 enzyme, 190 nM.

Molecule `CCCCN(CC)Cc1c(CC)nc2cc(C=CC(=O)NO)ccn12` [Compound 63, 3-{3-[(Butyl-ethyl-amino)-methyl]-2-ethyl-imidazo[1,2-a]pyridin-7-yl}-N-hydroxy-acrylamide] yielded a half-life at 5 µM in data set [1] of more than 1 h. Besides, the figures for the IC50 with Colo205 cells and on HDAC1 enzyme were 180 nM and 50 nM, respectively.

In the case of `CCCC(C)CN(CC)Cc1c(C(C)(C)C)nc2cc(C=CC(=O)NO)ccn12` (centres unmarked) [Compound 22, 3-(2-tert-Butyl-3-{[ethyl-(2-methyl-pentyl)-amino]-methyl}-imidazo[1,2-a]pyridin-7-yl)-N-hydroxy-acrylamide], the IC50 in the data set with Colo205 cells is 2100 nM; on HDAC1 enzyme, 470 nM.

In the case of `CCCCN(C)Cc1c(C(C)(C)C)nc2cc(C=CC(=O)NO)ccn12` [Compound 34, 3-{2-tert-Butyl-3-[(butyl-methyl-amino)-methyl]-imidazo[1,2-a]pyridin-7-yl}-N-hydroxy-acrylamide], the figures for the IC50 in the data set with Colo205 cells and at HDAC1 enzyme were 1700 nM and 220 nM, respectively.

Consider `CCCCc1nc2cc(C=CC(=O)NO)ccn2c1CN(CC)CC(C)CCC` (centres unmarked) [Compound 44, 3-(2-Butyl-3-{[ethyl-(2-methyl-pentyl)-amino]-methyl}-imidazo[1,2-a]pyridin-7-yl)-N-hydroxy-acrylamide], for which the IC50 with Colo205 cells came out at 490 nM; on HDAC1 enzyme it was 80 nM.

`CCNCc1c(C(C)(C)C)nc2cc(C=CC(=O)NO)ccn12` [Compound 15, 3-(2-tert-Butyl-3-ethylaminomethyl-imidazo[1,2-a]pyridin-7-yl)-N-hydroxy-acrylamide]: the IC50 in the data set on Colo205 cells was found to be 470 nM; at HDAC1 enzyme it was 60 nM.

Regarding `CCCCc1nc2cc(C=CC(=O)NO)ccn2c1CN(CC)CC(C)(C)C` [Compound 43, 3-(2-Butyl-3-{[(2,2-dimethyl-propyl)-ethyl-amino]-methyl}-imidazo[1,2-a]pyridin-7-yl)-N-hydroxy-acrylamide], the IC50 with Colo205 cells is 950 nM; on HDAC1 enzyme, 160 nM.

In the case of `CCc1nc2cc(C=CC(=O)NO)ccn2c1CNC(C)(C)C` [Compound 62, 3-[3-(tert-Butylamino-methyl)-2-ethyl-imidazo[1,2-a]pyridin-7-yl]-N-hydroxy-acrylamide], the IC50 came to 260 nM in the data set on Colo205 cells and 30 nM at HDAC1 enzyme.

On to `CCCCc1nc2cc(C=CC(=O)NO)ccn2c1CN(CC)CCC(C)CC(C)(C)C` (centres unmarked) [Compound 47, 3-(2-Butyl-3-{[ethyl-(3,5,5-trimethyl-hexyl)-amino]-methyl}-imidazo[1,2-a]pyridin-7-yl)-N-hydroxy-acrylamide], for which the IC50 is 530 nM with Colo205 cells and 200 nM at HDAC1 enzyme.
